{"source": "paper PMC12074337", "about": "“Isolation and Characterization of Earthworm Peptides with Neuroprotective Effects in Parkinson’s Disease Models” (Molecules, 2025)", "molecules": {"B1": {"name": "… (peptide)", "peptide": "GYSFTTTAER"}, "B2": {"name": "ILLIILI (peptide)", "peptide": "ILLIILI"}, "B3": {"name": "… (peptide)", "peptide": "AVFPSIVGR"}, "B4": {"name": "… (peptide)", "peptide": "AGFAGDDAPR"}}, "key": {"[1]": {"target": "T1, PINK1 (Tribolium castaneum, UniProt D6WMX4)", "T1 construct": "made in house", "T1 sequence (D6WMX4 6-570)": "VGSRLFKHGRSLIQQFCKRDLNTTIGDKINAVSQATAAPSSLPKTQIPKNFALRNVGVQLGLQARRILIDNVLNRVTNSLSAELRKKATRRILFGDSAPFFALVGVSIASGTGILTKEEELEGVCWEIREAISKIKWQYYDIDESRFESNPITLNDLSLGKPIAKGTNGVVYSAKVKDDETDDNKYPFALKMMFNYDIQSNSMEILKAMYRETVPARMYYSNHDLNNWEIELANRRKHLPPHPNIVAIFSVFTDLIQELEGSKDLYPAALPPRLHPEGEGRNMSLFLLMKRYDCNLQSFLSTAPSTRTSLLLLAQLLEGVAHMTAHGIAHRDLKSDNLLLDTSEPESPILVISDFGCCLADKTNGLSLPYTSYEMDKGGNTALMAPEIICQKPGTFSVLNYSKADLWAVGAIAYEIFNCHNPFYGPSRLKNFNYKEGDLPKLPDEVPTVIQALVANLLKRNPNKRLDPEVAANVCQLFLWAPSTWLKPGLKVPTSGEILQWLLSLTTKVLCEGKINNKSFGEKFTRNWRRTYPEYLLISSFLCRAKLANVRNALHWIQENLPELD", "assay": "biochemical", "assay_type": "biochemical", "details": "for PINK1 agonistic rate: 100 μM", "procedure": "The earthworms (Lumbricus terrestris) were purchased from Beijing Tongrentang Co., Ltd. (Chengdu, China). They were dried by the supplier through sun-drying and stored at 4 °C. The shelf life is one year. Rasagiline was purchased from Aladdin Biochemical Technology Co., Ltd. (Shanghai, China). Resveratrol was purchased from Pusi Biotechnology Co., Ltd. (Chengdu, China). The SH-SY5Y cells were obtained from the National Collection of Authenticated Cell Cultures (Shanghai, China). […] Dulbecco’s modified Eagle’s medium/Ham’s F-12 (DMEM/F12), fetal bovine serum (FBS), and phosphate-buffered saline (PBS) were purchased from Biological Industries (Kibbutz Beit HaEmek, Israel). Fluorescein diacetate (FDA), propidium iodide (PI) staining and mitochondrial membrane potential test kit (JC-1) were purchased from Beijing Solarbio Science & Technology Co., Ltd. (Beijing, China). Cell Counting Kit-8 (CCK-8) was purchased from Bimake Co., Ltd. (Shanghai, China). PrimeScript RT reagent kit and PerfectStart Green PCR Master Mix were purchased from TransGen Biotech (Beijing, China). […] The Kinase-Lumi™ Luminescent Kinase Assay Kit and ATP Assay Kit were purchased from Beyotime Biotechnology Co., Ltd. (Wuhan, China). The Insect dopamine (DA) ELISA Kit was purchased from Jiangsu Meimian Industrial Co., Ltd. (Yancheng, Jiangsu, China). HPLC-grade methanol was supplied by XLJ (Yunnan, China). Ultrapure water used in the experiment was prepared using a UP water purification (18.25 MΩ) system (Chengdu, China). Unless otherwise specified, chemicals and solvents were purchased from Kelong Chemical Reagents Factory (Chengdu, China).\nThe PINK1 activity assay was conducted with certain modifications based on the described by. Ubiquitin is a potent substrate for PINK1, which catalyzes the phosphorylation of ubiquitin while consuming ATP [33]. During the reaction, the consumption of ATP is associated with PINK1 activity. […] The enzymatic reaction was conducted on a white 96-well plate, with all samples dissolved in a buffer solution containing 50 mM Tris-HCl (pH = 7.5), 0.1 mM EDTA, 10 mM MgCl2, and 4% 2-hydroxy-1-ethanethiol. Subsequently, 10 μL of peptide sample, 10 μL of PINK1 (6.8 μM), 10 μL of ubiquitin (0.002 pg/mL), and 20 μL of ATP (10 μM) were added to the plate for incubation at a temperature of 25 °C for a duration of ten minutes. In addition, the blank control group replaces the peptide with a buffer solution. The resveratrol was employed as a positive control. The amount of ATP consumed was detected using the Kinase-Lumi™ Luminescent Kinase Assay Kit. The PINK1 agonistic rate was calculated by the following equation:(1) PINK1 agonistic rate (%)=(1−A−B/C−D)×100% where A represents the absorbance of the sample group consisting of the sample, PINK1, ubiquitin, and ATP; B represents the absorbance of the sample control group consisting of the sample, PINK1, and ubiquitin; C represents the absorbance of the control group consisting of PINK1, ubiquitin, and ATP; D represents the absorbance of the blank control group consisting of PINK1 and ubiquitin. The EC50 of each peptide was calculated using GraphPad Prism, version 10.0.2 software."}, "[2]": {"system": "PINK1^B9 flies", "assay": "Lifespan of PINK1^B9 flies", "assay_type": "in vivo, Drosophila", "details": "1 mM in medium, male flies", "quoted_text": "The flies were cultured on a conventional fly medium under controlled conditions of 25 ± 1 °C and 60% relative humidity. The traditional medium for cultivating flies was prepared by boiling 90 g of yeast, 240 g of corn flour, 32 g of agar, 189 g of glucose, and 98 g of sucrose, as well as adding a preservative solution consisting of 25 mL of a 10% methyl-4-hydroxybenzoate in distilled water to make a final volume of 3.5 L. The experimental medium was prepared by supplementing formula 4–24 instant Drosophila medium (Carolina Biological Supply Company, Burlington, NC, USA) with a concentration of 0.1 mM peptide. Male individuals of both wild-type (WT) and PINK1^B9 flies were collected for subsequent experiments.\nThe newly hatched male WT flies and male PINK1^B9 mutants were collected simultaneously, followed by their division into four groups with 4 bottles per group and 40 flies per bottle. The first group was provided with WT flies and fed with formula 4–24 instant drosophila medium. The second group consisted of PINK1^B9 flies and was also fed with formula 4–24 instant drosophila medium. The third group comprised PINK1^B9 flies and received formula 4–24 instant drosophila medium supplemented with 0.1 mM peptide. […] Fresh medium was replaced every 2–3 days, while the number of flies was recorded daily."}, "[3]": {"system": "PINK1^B9 flies", "set-up": "method as in PMID 30248358", "details": "cited from earlier work"}, "[4]": {"system": "MPP^+-damaged SH-SY5Y cells", "assay": "CCK-8 viability, neuroprotection of MPP+-damaged SH-SY5Y cells", "assay_type": "cell-based, human", "details": "100 μM", "procedure": "The SH-SY5Y human neuroblastoma cell line is extensively employed as a prominent cellular model for PD [31]. The neuroprotective effect of earthworm peptides against the MPP^+-damaged SH-SHY5Y cell model was evaluated using the CCK-8 method. First, the SH-SHY5Y cells were cultured in DMEM/F12 medium supplemented with 10% fetal bovine serum (FBS) and 1% penicillin–streptomycin, and they were maintained at a temperature of 37 °C with a CO2 concentration of 5% in a humidified atmosphere. The SH-SHY5Y cells were seeded into 96-well plates at a density of 1 × 10^4 cells per well, followed by incubation at 37 °C for 24 h. Subsequently, the initial medium was carefully aspirated. The peptide samples were dissolved in DMSO to prepare a high-concentration stock solution and then diluted to the required concentration (10, 25, 50, 100, and 150 μM), prepared using a medium, where they were subsequently introduced into the well and incubated at 37 °C for a duration of 2 h. Then, the cells were treated with MPP^+ (2 mM) per well for an additional 24 h. […] Following the completion of the experiment, the 96-well plate was extracted, and the absorbance was measured at 450nm by the […] GO spectrophotometric plate reader (Thermo Scientific, Waltham, MA, USA). The data were analyzed using GraphPad Prism, version 6.0."}, "[5]": {"system": "SH-SY5Y cells", "details": "cited from earlier work", "source_text": "(§1) Earthworm is used in traditional Chinese medicine as an animal-derived remedy. Its protein content and amino acid composition are better than those of fish, cow milk, and soybean meal. […] Moreover, its essential amino acid utilization rate is higher in the body and is more readily assimilated by the human system. Therefore, it is used as a supplement in animal feed and human food. Earthworm has been recorded in the Chinese medical classics of “ ..."}, "[6]": {"system": "inflammatory enzymes", "details": "in vitro and in vivo; cited from earlier work", "source_text": "as §1"}, "[7]": {"target": "PTEN-induced putative kinase 1 (PINK1) (UniProt D6WMX4)"}, "[8]": {"details": "ubiquitin substrate, 10 μM ATP, pH 7.5 Tris-HCl, 25 °C, 10 min, residual ATP luminescence, mean ± SD (n = 3)"}}, "note": "Like-named read-outs stand apart in the source and are kept apart here. No end group written: not given here."}
{"molecule": "Oc1ccc(/C=C/c2cc(O)cc(O)c2)cc1", "note": "[Resveratrol, resveratrol]", "values": [{"measurement": "PINK1 agonistic rate", "setting": "[1]; [8]", "result": "91.45 ± 0.34", "unit": "%"}, {"measurement": "EC50", "setting": "[1]; ubiquitin substrate, 10 μM ATP, pH 7.5 Tris-HCl, 25 °C, 10 min, residual ATP luminescence, mean ± SD (n = 3), read-out: EC50, PINK1 agonistic activity", "result": "13.8 ± 0.58", "unit": "µM"}, {"measurement": "lifespan extension of PINK1^B9 flies", "setting": "[2]", "result": 23.33, "unit": "%"}, {"measurement": "lifespan of PINK1^B9 flies (in words)", "setting": "[3]; 0.2 mM resveratrol", "result": "no significant effect"}, {"measurement": "lifespan of PINK1^B9 flies (in words)", "setting": "[3]; 1 mM resveratrol", "result": "effective in extending the lifespan"}]}
{"molecule": "AGFAGDDAPR [peptide identified from earthworm (Lumbricus terrestris), synthesized by solid phase]", "values": [{"measurement": "PINK1 agonistic rate", "setting": "[1]; [8]", "result": "33.45 ± 0.45", "unit": "%"}]}
{"molecule": "AVFPSIVGR", "values": [{"measurement": "cell viability (restored to)", "setting": "[4]; 2 h pre-incubation, then 2 mM MPP^+ 24 h, 37 °C, CCK-8, absorbance 450 nm, n = 3", "result": 68.77, "unit": "%"}, {"measurement": "EC50", "setting": "[1]", "result": "88.5 ± 0.97", "unit": "µM"}, {"measurement": "PINK1 agonistic rate", "setting": "[1]; [8]", "result": "50.35 ± 0.72", "unit": "%"}]}
{"molecule": "GYSFTTTAER", "values": [{"measurement": "cell viability (restored to)", "setting": "[4]; 2 h", "result": 70.08, "unit": "%"}, {"measurement": "EC50", "setting": "[1]", "result": "76.8 ± 1.3", "unit": "µM"}, {"measurement": "PINK1 agonistic rate", "setting": "[1]; [8]", "result": "52.46 ± 0.96", "unit": "%"}]}
{"molecule": "ILLIILI [peptide identified from earthworm (Lumbricus terrestris), synthesized by solid phase]", "values": [{"measurement": "PINK1 agonistic rate", "setting": "[1]; [8]", "result": "17.16 ± 0.55", "unit": "%"}]}
{"molecule": "QLICWRRFR [LumA5, lumbricusin analog 5]", "values": [{"measurement": "viability of SH-SY5Y cells", "setting": "[5]", "result": "improved"}, {"measurement": "expression of lip-induced inflammatory enzymes", "setting": "[6]", "result": "significantly reduce"}]}
{"molecule": "RNRRWCIDQQA [lumbricusin, antimicrobial peptide derived from earthworm]", "values": [{"measurement": "apoptosis and decreased viability induced by MPP^+", "setting": "[5]; SH-SY5Y", "result": "inhibits"}, {"measurement": "SH-SY5Y cell proliferation", "setting": "[5]", "result": "promotes"}]}
{"molecule": "B1", "values": [{"measurement": "EC50 of PINK1 agonistic activity; ATP consumed by purified PINK1 with ubiquitin as substrate (Kinase-Lumi luminescent kinase assay)", "setting": "[7]", "result": 76.8, "unit": "µM"}, {"measurement": "PINK1 agonistic rate (%) at 100 μM peptide; ATP consumed by purified PINK1 with ubiquitin as substrate (Kinase-Lumi luminescent kinase assay)", "setting": "[7]", "result": 52.5, "unit": "%"}]}
{"molecule": "B2", "values": [{"measurement": "PINK1 agonistic rate (%) at 100 μM peptide; ATP consumed by purified PINK1 with ubiquitin as substrate (Kinase-Lumi luminescent kinase assay)", "setting": "[7]", "result": 17.2, "unit": "%"}]}
{"molecule": "B3", "values": [{"measurement": "EC50 of PINK1 agonistic activity; ATP consumed by purified PINK1 with ubiquitin as substrate (Kinase-Lumi luminescent kinase assay)", "setting": "[7]", "result": 88.5, "unit": "µM"}, {"measurement": "PINK1 agonistic rate (%) at 100 μM peptide; ATP consumed by purified PINK1 with ubiquitin as substrate (Kinase-Lumi luminescent kinase assay)", "setting": "[7]", "result": 50.4, "unit": "%"}]}
{"molecule": "B4", "values": [{"measurement": "PINK1 agonistic rate (%) at 100 μM peptide; ATP consumed by purified PINK1 with ubiquitin as substrate (Kinase-Lumi luminescent kinase assay)", "setting": "[7]", "result": 33.5, "unit": "%"}]}
